# Laboratory results reported in patent publication US6242482A, “Prostaglandin compounds and derivatives thereof, compositions containing the same and method of using the same for the treatment of congestive heart failure” (priority 2000, dated 2001).
# “And” between values parts separate entries of the source, which are not always exact repeats. Equal values may be shown once. “Also recorded” adds a separate entry of the source. Read-outs that look alike come from different tables or passages of the source.
# Assays:
# [1] = tested on: Human Platelet Aggregation (collagen-induced); assay: Anti-aggregatory response, 1 min incubation with PRP, collagen-induced (Example 4); type: cell-based; conditions: 1 min with PRP; for Platelet Aggregation (mean): collagen 1 μg/ml
# Description: (§1) Blood from healthy human volunteers who had not taken any medicine for at least 14 days was collected by venopuncture into 3.15% (w/v) tri-sodium citrate (9:1 v/v). The blood was centrifuged at 800 g for 15 minutes to produce PRP. The PRP was further centrifuged at 12,000 g for 1 minute to produce PPP.
# (§2) Platelet aggregation was measured using a dual channel Payton aggregometer calibrated with PRP (0%) and PPP (100%) with respect to the degree of light transmission. Aliquots of PRP (500 μl) were added to siliconized cuvettes, stirred (1000 revs/min) and warmed to 37° C. The platelets were incubated for 1 minute to establish a stable baseline prior to testing. A submaximal concentration of the aggregating agent collagen (1 μg/ml) was added to the PRP and the platelet aggregation was monitored as the increase in light transmission observed over a 4 minute period.
# The percent inhibition of the platelet aggregation was calculated using the peak increase in light transmission observed over the 4 minute period following the addition of collagen, as compared to that of the control. This experiment was repeated using PRP from at least three human volunteers.
# [2] = tested on: mean arterial pressure and heart rate of anesthetized rats; conditions: for Time of Δmax (superscript) / t1/2 / Δmax (Mean Arterial Pressure): Table 4; for Mean Arterial Pressure: 0,1,5,10,15,30,60,120,180,240,360 min
# Description: Male Wistar rats (250-330 g) were anesthetized with thiopentone sodium (INTRAVAL®, 120 mg/kg i.p.). The trachea was cannulated to facilitate respiration. The right carotid artery was cannulated and connected to a pressure transducer (Spectramed P23XL), for the measurement of mean arterial pressure (MAP) and heart rate (HR) which were continuously recorded on a 4-channel Grass 7D polygraph recorder (Grass, Mass., U.S.A.). Body temperature was maintained at 37±1°C. by means of a rectal probe thermometer attached to a homeothermic blanket control unit (Harvard Apparatus Ltd.).
# [3] = tested on: U44069-induced pulmonary hypertension; assay: Effects on pulmonary vascular hypertension in sheep in vivo (Example 16); conditions: FIG. 5
# Excerpt: Each sheep was monitored for measurement of pulmonary arterial pressure (PPA), left atrial pressure (PLA), systemic arterial pressure (PSA), cardiac output (CO), and heart rate (HR). Plasma samples were taken from the sheep subjects to measure drug levels within the blood throughout the experiment. The experiment began upon intravenously infusing a known pulmonary arterial hypertension inducer in a customary manner. The rate of inducement was adjusted to cause the pulmonary vascular resistance (PVR) to increase 3 to 4 times that of the initial baseline PVR. PVR is calculated as the difference between PPA and PLA, divided by the CO. After a stabilization period, a sample of a present prostaglandin compound was administered via a surgically prepared tracheotomy using a MEDICATOR® aerosol drug delivery system (Healthline Medical Inc., Baldwin Park, Calif.), or via intravenous infusion.
# [4] = tested on: Human Platelet Aggregation (collagen-induced); assay: Anti-aggregatory activity, 1 min incubation with PRP, collagen-induced (Example 8); type: cell-based; conditions: 1 minute with PRP
# Description: as §1, with “PPP. A total of 12 volunteers donated blood for the study.” for “PPP.”
# as §2, with “studied” for “measured”, “investigation.” for “testing.”
# The percentage inhibition of the platelet aggregation was calculated using the peak increase in light transmission observed over the 4 minute period following addition of collagen, as compared to that of control. This experiment was repeated using PRP from at least three human volunteers for each compound under study.
# [5] = tested on: mean arterial pressure and heart rate of anesthetized rats; assay: Systemic hemodynamic effects, intravenous, anesthetized rats (Example 5); type: in vivo, rat (male Wistar)
# Description: The time for onset and maximal response were evaluated, as well as the time taken for the response to return to 50% of the baseline value for comparing effective lives. Among other effects, lowering of the blood pressure inside the blood vessels is beneficial for the treatment of congestive heart failure by reducing the vascular resistance blood flow, and thus the work load imposed on the heart.
# Male Wistar rats were anesthetized with thiopentone sodium (INTRAVAL®, 120 mg kg^-1 i.p.). The trachea was cannulated to facilitate breathing. The right carotid artery was cannulated and connected to a pressure transducer (Spectramed P23XL), for the measurement of mean arterial pressure (MAP) and heart rate (HR) which were continuously recorded on a 4-channel Grass 7D polygraph recorder (Grass, Mass., USA). The left femoral vein or the right jugular vein was cannulated for the administration of drugs. The body temperature of the test animal was maintained at 37±1° C. by means of a rectal probe thermometer attached to a homeothermic blanket control unit (Harvard Apparatus Ltd).
# After a 15 minute stabilization period, the animals were injected once intravenously with selected doses of each compound, and hemodynamic parameters were continuously monitored for three hours in order to ascertain the duration of action of the compounds under study.
# [6] = tested on: Human Platelet Aggregation (collagen-induced); assay: Anti-aggregatory response after incubation with aqueous vehicle (Example 8); type: cell-based; conditions: up to 4 hours at 37° C
# Description: as §1, with “PPP. A total of 12 volunteers donated blood for the study.” for “PPP.”
# as §2, with “studied” for “measured”, “investigation.” for “testing.”
# After the incubation period, an aliquot of the PPP or aqueous vehicle (50 μl) was added to fresh PRP (450 μl) for determination of anti-platelet activity. This experiment was repeated using PPP from at least three human volunteers for each compound.
# [7] = i.v., Compound X 0.1 and 1 mg/kg, Compound 1 doses of b230
smiles,measurement,setting,value
CCCCC[C@H](O)CC[C@@H]1[C@H]2Cc3cccc(OCC(=O)O)c3C[C@H]2C[C@H]1O [Compound X],Platelet Aggregation (mean),[1]; 1 ng/ml final,101 % of Control
same,Platelet Aggregation (mean),[1]; 3 ng/ml final,98 % of Control
same,Platelet Aggregation (mean),[1]; 10 ng/ml final,60 % of Control
same,Platelet Aggregation (mean),[1]; 30 ng/ml final,1 % of Control
same,Platelet Aggregation (mean),[1]; 100 ng/ml final,1 % of Control
same,inhibition of aggregation response at highest concentrations,"[1]; Compound X 30 and 100 ng/ml, Compound 1 3 mg/ml, Compound 3 10 mg/ml",completely inhibited the aggregation response
same,concentration inhibiting aggregation by 50% (ID50),[1]; collagen,20 ng/mL
same,"inhibition of platelet aggregation, concentration dependence",[1]; collagen,concentration-dependentinhibition of collagen-induced platelet aggregation
same,Time of Δmax (superscript),[2]; 0.1 mg/kg s.c.,15 min
same,t1/2,[2]; 0.1 mg/kg s.c.,165 min
same,Δmax (Mean Arterial Pressure),[2]; 0.1 mg/kg s.c.,46 ± 5 mm Hg
same,Mean Arterial Pressure,[2]; 0.3 mg/kg s.c.,101 ± 12 mm Hg
same,Time of Δmax (superscript),[2]; 0.3 mg/kg s.c.,10 min
same,t1/2,[2]; 0.3 mg/kg s.c.,80 to 110 min
same,Δmax (Mean Arterial Pressure),[2]; 0.3 mg/kg s.c.,52 mm Hg
same,maximum fall in MAP,[2]; 1 mg/kg s.c.,about 70 mm Hg
same,time of maximum fall in MAP,[2]; 1 mg/kg s.c.,15 min
same,Mean Arterial Pressure,[2]; 1 mg/kg s.c.,88 ± 5 mm Hg and 98 ± 6 mm Hg
same,Time of Δmax (superscript),[2]; 1 mg/kg s.c.,15 min
same,t1/2,[2]; 1 mg/kg s.c.,135 to 290 min
same,Δmax (Mean Arterial Pressure),[2]; 1 mg/kg s.c.,71 ± 8 mm Hg
same,heart rate / tachycardia,"[2]; rat, in vivo, sc",dose-dependent increase in heart rate
same,fall in MAP,"[2]; s.c., Compound 4 1-10 mg/kg, Compound X 0.1-1 mg/kg, Compounds 7 and 8 3-30 mg/kg",rapid dose-related fall in MAP
same,PPA-PLA before administration (normalized),[3]; 1 μg/kg aerosol over 15 minutes,about 11.25 cmH2 O
same,PPA-PLA after administration (normalized),"[3]; 1 μg/kg aerosol, 10 minutes after termination",about 5 cmH2 O
same,concentration inhibiting aggregation by 50% (IC50),[4],19 ± 1 ng/mL
same,"inhibition of platelet aggregation, concentration dependence",[4],concentration dependent inhibition of collagen-induced platelet aggregation
same,inhibition of aggregation response at highest concentrations,"[4]; X 30 and 100 ng/ml, 4 300 μg/ml, 6 3 mg/ml, 7 10 mg/ml",completely inhibited the aggregation response
same,effective life (MAP returning to 50% of baseline value),[5]; 0.1 mg/kg i.v.,about fifteen
same,effective life (MAP returning to 50% of baseline value),[5]; 1.0 mg/kg i.v.,about thirty
same,decline in MAP,[5]; i.v.,"immediate, dose related decline in the MAP; also recorded: substantial dose-related fall in MAP"
same,maximum decline in MAP,[5]; [7],about 70 mm Hg
same,time of maximum decline in MAP,[5]; [7],within the first minute
same,effect of incubation with aqueous vehicle/saline/buffer on anti-platelet activity,[6],not affected by incubation
